# Data reported in US20260355196A1, “INHIBITORS AND DEGRADERS OF PIP4K PROTEIN” (Larkspur Biosciences, Inc., priority 2023, published 2026).
# Target: T1, PIP4K2C (Homo sapiens, UniProt Q8TBX8)
# T1 sequence (Q8TBX8 1-421): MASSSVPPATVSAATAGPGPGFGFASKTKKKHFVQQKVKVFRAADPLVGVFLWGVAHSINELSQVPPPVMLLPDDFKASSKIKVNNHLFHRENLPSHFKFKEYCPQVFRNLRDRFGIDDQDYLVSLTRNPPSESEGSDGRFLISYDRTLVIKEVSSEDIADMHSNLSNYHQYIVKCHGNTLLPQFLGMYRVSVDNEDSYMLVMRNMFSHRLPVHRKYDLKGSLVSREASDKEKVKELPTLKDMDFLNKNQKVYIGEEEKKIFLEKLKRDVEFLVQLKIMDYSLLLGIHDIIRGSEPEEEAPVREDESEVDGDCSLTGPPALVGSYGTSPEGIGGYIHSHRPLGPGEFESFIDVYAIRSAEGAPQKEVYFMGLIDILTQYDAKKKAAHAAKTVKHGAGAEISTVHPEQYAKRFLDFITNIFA
# Test: HiBiT PIP4K2C degradation assay in MOLT-4 cells (endogenous PIP4K2C C-terminally tagged with HiBiT)
# Assay type: cell-based
# Set-up: untagged in primary human PBMCs and monocyte-derived dendritic cells
# Conditions: 6 hours of incubation time, rather than 24 hours; MOLT-4, top concentration 10 micromolar; read-out: HiBIT-degradation MOLT4 PIP4k2C DC50 (6 hours, marked *)
# Procedure, shortened: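 In a CRISPR-engineered MOLT-4 clone carrying HiBiT-tagged PIP4K2C, degradation was assessed after 24 or 6 hours of dosing (10 micromolar top, 3-fold steps). Luminescence from lytic HiBiT detection was fitted to obtain DC50.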
row,Compound,DC50 [nM]
1,"O=C1CCC(Nc2ccc(N3CCN(CC4(F)CCN(C(=O)[C@H]5CC[C@H](Nc6ncc(F)c(-c7cccc(C8CC8)c7)n6)CC5)CC4)CC3)c(F)c2)C(=O)N1 (stereo partly drawn) [Compound 529, trans-3-((4-(4-((1-((1r,4r)-4-((4-(3-cyclopropylphenyl)-5-fluoropyrimidin-2-yl)amino)cyclohexane-1-carbonyl)-4-fluoropiperidin-4-yl)methyl)piperazin-1-yl)-3-fluorophenyl)amino)piperidine-2,6-dione]",< 500
2,"O=C1CCC(Nc2ccc(N3CCN(CC4(F)CCN(C(=O)[C@H]5CC[C@H](Nc6ncc(F)c(-c7cccc(N8CCOCC8=O)c7)n6)CC5)CC4)CC3)c(F)c2)C(=O)N1 (stereo partly drawn) [Compound 530, trans-3-((3-fluoro-4-(4-((4-fluoro-1-(4-((5-fluoro-4-(3-(3-oxomorpholino)phenyl)pyrimidin-2-yl)amino)cyclohexane-1-carbonyl)piperidin-4-yl)methyl)piperazin-1-yl)phenyl)amino)piperidine-2,6-dione]",< 500
3,"Cn1nc(C2CCC(=O)NC2=O)c2ccc(C3CCN(C[C@H]4CC[C@H](C(=O)N[C@H]5CC[C@H](Nc6ncc(F)c(-c7cccc(-n8ccccc8=O)c7)n6)CC5)CC4)CC3)cc21 (stereo partly drawn) [Compound 535, trans-(1r,4R)-4-((4-(3-(2,6-dioxopiperidin-3-yl)-1-methyl-1H-indazol-6-yl)piperidin-1-yl)methyl)-N-((1r,4R)-4-((5-fluoro-4-(3-(2-oxopyridin-1 (2H)-yl)phenyl)pyrimidin-2-yl)amino)cyclohexyl)cyclohexane-1-carboxamide]",< 500
4,"O=C1CCC(Nc2ccc(C3CCN([C@H]4CC[C@H](C(=O)N[C@H]5CC[C@H](Nc6ncc(F)c(-c7cccc(N8CCOCC8=O)n7)n6)CC5)CC4)CC3)c(F)c2)C(=O)N1 (stereo partly drawn) [Compound 538, trans-(1r,4R)-4-(4-(4-((2,6-dioxopiperidin-3-yl)amino)-2-fluorophenyl)piperidin-1-yl)-N-((1r,4R)-4-((5-fluoro-4-(6-(3-oxomorpholino)pyridin-2-yl)pyrimidin-2-yl)amino)cyclohexyl)cyclohexane-1-carboxamide]",> 5000
5,"Cn1nc(N2CCC(=O)NC2=O)c2cc(F)c(C3CCN(CC4CCN(C(=O)[C@H]5CC[C@H](Nc6ncc(F)c(-c7cccc(-n8ccccc8=O)c7)n6)CC5)CC4)CC3)cc21 [Compound 540, trans-1-(5-fluoro-6-(1-((1-((1r,4r)-4-((5-fluoro-4-(3-(2-oxopyridin-1(2H)-yl)phenyl)pyrimidin-2-yl)amino)cyclohexane-1-carbonyl)piperidin-4-yl)methyl)piperidin-4-yl)-1-methyl-1H-indazol-3-yl)dihydropyrimidine-2,4(1H,3H)-dione]",> 5000
6,"O=C1CCC(Nc2ccc(N3CCN([C@H]4CC[C@H](C(=O)N[C@H]5CC[C@H](Nc6ncc(F)c(-c7cccc(N8CCCCC8)c7)n6)CC5)CC4)CC3)c(F)c2)C(=O)N1 (stereo partly drawn) [Compound 541, trans-4-(4-(4-((2,6-dioxopiperidin-3-yl)amino)-2-fluorophenyl)piperazin-1-yl)-N-(trans-4-((5-fluoro-4-(3-(piperidin-1-yl)phenyl)pyrimidin-2-yl)amino)cyclohexyl)cyclohexane-1-carboxamide]",< 500
7,"O=C1CC[C@H](Nc2ccc(N3CCC(N4CCC(C(=O)N[C@H]5CC[C@H](Nc6ncc(F)c(-c7cccc(N8CCCOC8=O)c7)n6)CC5)CC4)CC3)c(F)c2)C(=O)N1 [Compound 542, 1′-(4-(((S)-2,6-dioxopiperidin-3-yl)amino)-2-fluorophenyl)-N-((trans)-4-((5-fluoro-4-(3-(2-oxo-1,3-oxazinan-3-yl)phenyl)pyrimidin-2-yl)amino)cyclohexyl)-[1,4′-bipiperidine]-4-carboxamide]",< 500
8,"O=C1CC[C@@H](Nc2ccc(N3CCN([C@H]4CC[C@H](C(=O)N[C@H]5CC[C@H](Nc6ncc(F)c(-c7cccc(-c8ccc[nH]c8=O)c7)n6)CC5)CC4)CC3)c(F)c2)C(=O)N1 [Compound 544, trans-4-(4-(4-(((R)-2,6-dioxopiperidin-3-yl)amino)-2-fluorophenyl)piperazin-1-yl)-N-((trans)-4-((5-fluoro-4-(3-(2-oxo-1,2-dihydropyridin-3-yl)phenyl)pyrimidin-2-yl)amino)cyclohexyl)cyclohexane-1-carboxamide]",< 500
9,"O=C1CCC(Nc2ccc(C3CCN([C@H]4CC[C@H](NC(=O)[C@H]5CC[C@H](Nc6ncc(F)c(-c7cccc(N8CCOCC8=O)n7)n6)CC5)CC4)CC3)c(F)c2)C(=O)N1 (stereo partly drawn) [Compound 545, trans-N-(trans-4-(4-(4-((2,6-dioxopiperidin-3-yl)amino)-2-fluorophenyl)piperidin-1-yl)cyclohexyl)-4-((5-fluoro-4-(6-(3-oxomorpholino)pyridin-2-yl)pyrimidin-2-yl)amino)cyclohexane-1-carboxamide]",< 500

# Other lines, results leading:
row,DC50 [nM],Compound
1,< 500,"O=C1CCC(Nc2ccc(N3CCC(N4CCC(NC(=O)[C@H]5CC[C@H](Nc6ncc(F)c(-c7cccc(N8CCCCC8)c7)n6)CC5)CC4)CC3)c(F)c2)C(=O)N1 (stereo partly drawn) [Compound 531, trans-N-(1′-(4-((2,6-dioxopiperidin-3-yl)amino)-2-fluorophenyl)-[1,4′-bipiperidin]-4-yl)-4-((5-fluoro-4-(3-(piperidin-1-yl)phenyl)pyrimidin-2-yl)amino)cyclohexane-1-carboxamide]"
2,< 500,"O=C1CCC(Nc2ccc(N3CCC(N4CCC(NC(=O)[C@H]5CC[C@H](Nc6ncc(F)c(-c7cccc(N8CCOCC8=O)c7)n6)CC5)CC4)CC3)c(F)c2)C(=O)N1 (stereo partly drawn) [Compound 532, trans-N-(1′-(4-((2,6-dioxopiperidin-3-yl)amino)-2-fluorophenyl)-[1,4′-bipiperidin]-4-yl)-4-((5-fluoro-4-(3-(3-oxomorpholino)phenyl)pyrimidin-2-yl)amino)cyclohexane-1-carboxamide]"
3,< 500,"O=C1CCC(Nc2ccc(N3CCC(N4CCC(NC(=O)[C@H]5CC[C@H](Nc6ncc(F)c(-c7cccc(C8CC8)c7)n6)CC5)CC4)CC3)c(F)c2)C(=O)N1 (stereo partly drawn) [Compound 533, trans-4-((4-(3-cyclopropylphenyl)-5-fluoropyrimidin-2-yl)amino)-N-(1′-(4-((2,6-dioxopiperidin-3-yl)amino)-2-fluorophenyl)-[1,4′-bipiperidin]-4-yl)cyclohexane-1-carboxamide]"
4,< 500,"O=C1CCC(Nc2ccc(N3CCN([C@H]4CC[C@H](C(=O)N[C@H]5CC[C@H](Nc6ncc(F)c(-c7cccc(N8CCOCC8=O)c7)n6)CC5)CC4)CC3)c(F)c2)C(=O)N1 (stereo partly drawn) [Compound 536, trans-4-(4-(4-((2,6-dioxopiperidin-3-yl)amino)-2-fluorophenyl)piperazin-1-yl)-N-(trans-4-((5-fluoro-4-(3-(3-oxomorpholino)phenyl)pyrimidin-2-yl)amino)cyclohexyl)cyclohexane-1-carboxamide]"
5,< 500,"O=C1CCC(Nc2ccc(N3CCN([C@H]4CC[C@H](C(=O)N[C@H]5CC[C@H](Nc6ncc(F)c(-c7cccc(C(=O)N8CC[C@H](O)C8)c7)n6)CC5)CC4)CC3)c(F)c2)C(=O)N1 (stereo partly drawn) [Compound 537, trans-4-(4-(4-((2,6-dioxopiperidin-3-yl)amino)-2-fluorophenyl)piperazin-1-yl)-N-(trans-4-((5-fluoro-4-(3-((S)-3-hydroxypyrrolidine-1-carbonyl)phenyl)pyrimidin-2-yl)amino)cyclohexyl)cyclohexane-1-carboxamide]"
6,< 500,"O=C1CC[C@@H](Nc2ccc(N3CCC(N4CCC(C(=O)N[C@H]5CC[C@H](Nc6ncc(F)c(-c7cccc(N8CCCOC8=O)c7)n6)CC5)CC4)CC3)c(F)c2)C(=O)N1 [Compound 543, 1′-(4-(((R)-2,6-dioxopiperidin-3-yl)amino)-2-fluorophenyl)-N-((trans)-4-((5-fluoro-4-(3-(2-oxo-1,3-oxazinan-3-yl)phenyl)pyrimidin-2-yl)amino)cyclohexyl)-[1,4′-bipiperidine]-4-carboxamide]"
7,< 500,"O=C1CCC(Nc2ccc(C3CCN([C@H]4CC[C@H](NC(=O)[C@H]5CC[C@H](Nc6ncc(F)c(-c7cccc(N8CCCCC8=O)n7)n6)CC5)CC4)CC3)c(F)c2)C(=O)N1 (stereo partly drawn) [Compound 546, trans-N-(trans-4-(4-(4-((2,6-dioxopiperidin-3-yl)amino)-2-fluorophenyl)piperidin-1-yl)cyclohexyl)-4-((5-fluoro-4-(6-(2-oxopiperidin-1-yl)pyridin-2-yl)pyrimidin-2-yl)amino)cyclohexane-1-carboxamide]"
8,< 500,"O=C1CCC(Nc2ccc(C3CCN([C@H]4CC[C@H](NC(=O)[C@H]5CC[C@H](Nc6ncc(F)c(-c7cccc(N8CCOCC8=O)c7)n6)CC5)CC4)CC3)c(F)c2)C(=O)N1 (stereo partly drawn) [Compound 547, trans-N-(trans-4-(4-(4-((2,6-dioxopiperidin-3-yl)amino)-2-fluorophenyl)piperidin-1-yl)cyclohexyl)-4-((5-fluoro-4-(3-(3-oxomorpholino)phenyl)pyrimidin-2-yl)amino)cyclohexane-1-carboxamide]"
9,< 500,"O=C1CCC(Nc2ccc(C3CCN([C@H]4CC[C@H](NC(=O)[C@H]5CC[C@H](Nc6ncc(F)c(-c7ccnc(C8(O)CCC8)c7)n6)CC5)CC4)CC3)c(F)c2)C(=O)N1 (stereo partly drawn) [Compound 548, trans-N-(trans-4-(4-(4-((2,6-dioxopiperidin-3-yl)amino)-2-fluorophenyl)piperidin-1-yl)cyclohexyl)-4-((5-fluoro-4-(2-(1-hydroxycyclobutyl)pyridin-4-yl)pyrimidin-2-yl)amino)cyclohexane-1-carboxamide]"
